Columns and labels:
[1] = system: MK-801-induced hyperactivity and stereotyped sniffing; assay: MK-801-induced psychosis (hyperactivity and stereotyped sniffing); assay type: in vivo, rat; details: p.o., 30 min before test (Example 30: 60 min), female Wistar rats, MK-801 0.1 mg/kg i.p. 10 min before, vs MK-801 control; for dose significantly reversing MK-801-induced hyperactivity: activity recorded 1 h; for dose significantly reversing MK-801-induced stereotyped sniffing: scored 1 h
Description: Female Wistar rats (Crl: (WI) BR, Charles River, Sulzfeld, Germany) weighing 150 to 180 g were used for the MK-801-induced psychosis. Animals were housed under standard conditions in groups of five on a 12 h light/dark cycle (light on at 0600 h) with ad libitum access to food (Pellets, ssniff M/R 15, Spezialdiät GmbH, Soest/Westfalen) and
Hydroxyethylcellulose was solved in distilled water.
MK-801 was solved in saline so that an administration volume of 0.5 ml/100 g was reached. The suspensions and solution were placed on a magnetic stirrer before and during dosing procedures.
The behaviour induced by the NMDA antagonist MK-801 is generally accepted as a rat model of psychosis. MK-801 induces stereotyped sniffing, hyperactivity and ataxia in rats after intraperitoneal administration.
Locomotor activity of the rats was recorded by the MotiTest Apparatus (TSE, Bad Homburg, Germany). The test area consisted of a squared arena (45×45 cm) with protective plexiglass walls (20 cm of height) where rats could freely move. Horizontal movements were recorded by 32 infrared photocells arranged along the bottom of each wall of the arena. The activity [sec] was measured by the computer program “ActiMot” (TSE, Bad Homburg, Germany).
Stereotyped sniffing was scored by the experimenter every five minutes for one hour (12 intervals) according to the method described by Andiné et al. (1999). The scores of the 12 intervals were summed up at the end of the recording time.
The day of experiment the female rats were placed in the laboratory and received the test compound or vehicle at the appropriate time prior to test. MK-801 0.1 mg/kg was intraperitoneally administered 10 minutes prior to test.
At the beginning of the test the rats were placed in the centre of the squared arena of the MotiTest apparatus. Behaviour of the rats was recorded for one hour. After each run animals were removed and the boxes thoroughly cleaned and dried.
Results were analysed by one way analysis of variance (ANOVA). Tukey test was used for individual comparison. P<0.05 was regarded as significant.

PDE10 from pig striatum = PDE10 from pig striatum (Sus scrofa, UniProt A0A287B941); assay: Inhibition of PDE10 from pig striatum ([3H]-cAMP SPA); assay type: biochemical; details: for IC50: pig striatum preparation, 0.1 μM [3H]-cAMP, 37° C., 30 minutes
Description: (§1) Phosphodiesterase isoenzyme 10 (PDE10) activity was determined in preparations of rat, pig and guinea pig striatum respectively. Striatum from male Wistar rats (180-200 g), male hybrid pigs (150 kg) and male guinea pigs (CRL (HA), 500 g) respectively were collected and frozen at −70° C.
(§2) For the enzymatic testing of PDE10 activity 0.5 g of the isolated and frozen striatum was homogenised in 10 ml 50 mM Tris/Mg-buffer at 4° C. and centrifuged for one hour at 100000 g.
(§3) Nonspecific activity was tested without the enzyme. […] For determination of IC50 values the Hill-plot, 2-parameter-model, was used.

PDE10 from rat striatum = molecular target: T1, PDE10 from rat striatum (Rattus norvegicus, UniProt Q9QYJ6); assay: Inhibition of PDE10 from rat striatum ([3H]-cAMP SPA); assay type: biochemical; details: substrate of the enzyme preparation
T1 construct: from tissue; host or cells: rat striatum (male Wistar rats), homogenate fractions enriched on HiTrap Q HP
T1 sequence (Q9QYJ6 1-794): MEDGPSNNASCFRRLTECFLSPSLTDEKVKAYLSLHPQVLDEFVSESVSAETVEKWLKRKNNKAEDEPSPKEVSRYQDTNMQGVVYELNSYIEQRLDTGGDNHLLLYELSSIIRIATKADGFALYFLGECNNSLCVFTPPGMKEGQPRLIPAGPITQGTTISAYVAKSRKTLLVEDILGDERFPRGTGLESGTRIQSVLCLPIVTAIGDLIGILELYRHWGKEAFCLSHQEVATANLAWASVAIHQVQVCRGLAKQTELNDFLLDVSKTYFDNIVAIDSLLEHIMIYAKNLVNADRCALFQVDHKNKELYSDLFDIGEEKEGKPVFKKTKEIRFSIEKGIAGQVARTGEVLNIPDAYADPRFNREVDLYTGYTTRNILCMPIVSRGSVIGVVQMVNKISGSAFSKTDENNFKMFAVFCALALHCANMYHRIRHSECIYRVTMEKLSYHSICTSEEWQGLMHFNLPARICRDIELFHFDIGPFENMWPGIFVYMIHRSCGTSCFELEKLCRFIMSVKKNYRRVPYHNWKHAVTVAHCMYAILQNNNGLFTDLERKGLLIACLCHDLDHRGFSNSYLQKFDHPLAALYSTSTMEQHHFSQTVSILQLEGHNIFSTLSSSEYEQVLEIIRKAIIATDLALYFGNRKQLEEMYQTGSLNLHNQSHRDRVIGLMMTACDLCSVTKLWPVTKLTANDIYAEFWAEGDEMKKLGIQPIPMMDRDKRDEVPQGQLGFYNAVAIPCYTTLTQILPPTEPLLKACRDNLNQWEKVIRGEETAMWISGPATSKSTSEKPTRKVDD
Description: as §1, §2, §3

[2] = molecular target: PDE10 from guinea pig striatum (Cavia porcellus, UniProt A0A286XN47); assay: Inhibition of PDE10 from guinea pig striatum ([3H]-cAMP SPA); assay type: biochemical; details: guinea pig striatum preparation; 0.1 μM [3H]-cAMP; 37° C., 30 minutes
PDE10 from guinea pig striatum, sequence (A0A286XN47 1-773): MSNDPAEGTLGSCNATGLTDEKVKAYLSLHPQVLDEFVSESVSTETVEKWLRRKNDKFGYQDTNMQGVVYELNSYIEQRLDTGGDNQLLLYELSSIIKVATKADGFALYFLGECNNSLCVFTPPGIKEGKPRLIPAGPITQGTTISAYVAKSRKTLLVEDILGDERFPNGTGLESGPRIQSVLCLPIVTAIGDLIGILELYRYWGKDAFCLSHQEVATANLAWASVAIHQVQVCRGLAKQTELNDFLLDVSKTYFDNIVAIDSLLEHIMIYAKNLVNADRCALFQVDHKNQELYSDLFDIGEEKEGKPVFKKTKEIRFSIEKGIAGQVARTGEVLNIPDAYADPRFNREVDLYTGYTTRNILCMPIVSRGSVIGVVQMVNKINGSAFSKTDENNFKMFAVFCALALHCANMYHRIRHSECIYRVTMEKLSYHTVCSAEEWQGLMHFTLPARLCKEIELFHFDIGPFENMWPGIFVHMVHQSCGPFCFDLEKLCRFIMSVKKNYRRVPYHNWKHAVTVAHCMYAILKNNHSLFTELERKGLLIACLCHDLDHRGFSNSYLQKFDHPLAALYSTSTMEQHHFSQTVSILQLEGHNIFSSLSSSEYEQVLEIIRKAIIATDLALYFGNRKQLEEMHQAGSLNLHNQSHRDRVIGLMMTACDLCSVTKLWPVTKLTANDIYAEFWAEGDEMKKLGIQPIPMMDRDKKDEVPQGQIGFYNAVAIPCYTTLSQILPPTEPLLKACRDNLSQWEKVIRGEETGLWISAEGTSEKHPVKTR
Description: as §1, §2, §3

## CON1C=C2C=NC3=C(N(CCC(F)(F)F)CC(C)=C3NS(C)(=O)=O)N2C1 [Example 78, 8-methoxy-3-methyl-1-(3,3,3-trifluoropropyl)-4-methylsulfonylamino-imidazo[1,5-a]pyrido[3,2-e]pyrazine]
other
  melting point: 250 to 253 °C

## 4-cyano-8-methoxy-3-methyl-1-ethyl-imidazo[1,5-a]pyrido[3,2-e]pyrazine [Example 30]
[1]
  dose significantly reversing MK-801-induced hyperactivity: ≥ 10 mg/kg
  dose significantly reversing MK-801-induced stereotyped sniffing: ≥ 10 mg/kg

## CON1C=C2C=NC3=C(N2C1)N(c1ccccc1)CC(C)=C3NS(C)(=O)=O [Example 81, 8-methoxy-3-methyl-1-phenyl-4-methylsulfonylamino-imidazo[1,5-a]pyrido[3,2-e]pyrazine]
other
  melting point: 217 to 220 °C

## 8-methoxy-4-methoxycarbonylamino-3-methyl-1-propyl-imidazo[1,5-a]pyrido[3,2-e]pyrazine [Example 62]
[1]
  dose significantly reversing MK-801-induced hyperactivity: 5 mg/kg
  dose significantly reversing MK-801-induced stereotyped sniffing: 5 mg/kg

## Nc1nc2c(ncn2[C@@H]2O[C@@H]3COP(=O)(O)O[C@H]3[C@H]2O)c(=O)[nH]1 [cGMP]
PDE10 from pig striatum; substrate of the enzyme preparation
  Km: 2.2 µM
PDE10 from rat striatum
  Km: 1.8 µM

## CCCN1CC(C)=C(SC)C2=C1N1CN(OC)C=C1C=N2 [Example 26, 8-methoxy-3-methyl-4-methylthio-1-propyl-imidazo[1,5-a]pyrido[3,2-e]pyrazine]
other
  melting point: 112 to 115 °C

## CCCN1CC(C)=C(NS(=O)(=O)CCC)C2=C1N1CN(OC)C=C1C=N2 [Example 74, 8-methoxy-3-methyl-1-propyl-4-propylsulfonylamino-imidazo[1,5-a]pyrido[3,2-e]pyrazine]
other
  melting point: 203 to 206 °C

## CCCOC1=C(C)CN(CC)C2=C1N=CC1=CN(OC)CN12 [Example 7, 1-ethyl-8-methoxy-3-methyl-4-propyloxy-imidazo[1,5-a]pyrido[3,2-e]pyrazine]
other
  melting point: 78 to 81 °C

## CCN1CC(C)=CC2=C1N1CN(OC)C=C1C=N2 [Example 36, 1-ethyl-8-methoxy-3-methyl-imidazo[1,5-a]pyrido[3,2-e]pyrazine]
other
  melting point: 159 to 162 °C

## 8-methoxy-3-methyl-1-propyl-imidazo[1,5-a]pyrido[3,2-e]pyrazine [Example 35]
[1]
  dose significantly reversing MK-801-induced hyperactivity: 30 mg/kg
  dose significantly reversing MK-801-induced stereotyped sniffing: ≥ 30 mg/kg

## CCCN1CC(C)=C(NS(=O)(=O)c2ccc(C)cc2)C2=C1N1CN(OC)C=C1C=N2 [Example 76, 8-methoxy-3-methyl-4-(4-methylphenylsulfonylamino)-1-propyl-imidazo[1,5-a]pyrido[3,2-e]pyrazine]
other
  melting point: 229 to 232 °C

## CCCN1CC(C)=C(C)C2=C1N1CN(C)C=C1C=N2 [Example 51, 1-propyl-3,4,8-trimethyl-imidazo[1,5-a]pyrido[3,2-e]pyrazine]
other
  melting point: 104 to 107 °C

## CCN1CC(C)=C([S+](C)[O-])C2=C1N1CN(OC)C=C1C=N2 (centres unmarked) [Example 34, 1-ethyl-8-methoxy-3-methyl-4-methylsulfinyl-imidazo[1,5-a]pyrido[3,2-e]pyrazine]
other
  melting point: 189 to 192 °C

## CCCc1nc(C)c2c(NS(=O)(=O)C(F)(F)F)nc3ccc(OC)nc3n12 [Example 73, 8-methoxy-3-methyl-1-propyl-4-trifluoromethylsulfonylamino-imidazo[1,5a]pyrido[3,2-e]pyrazine]
PDE10 from pig striatum
  IC50: 19 nM

## CCCN1CC=C(OC)C2=C1N1CN(OC)C=C1C=N2 [Example 2, 4,8-dimethoxy-1-propyl-imidazo[1,5-a]pyrido[3,2-e]pyrazine]
other
  melting point: 113 to 116 °C

## 1-propyl-4,8-dimethyl-imidazo[1,5-a]pyrido[3,2-e]pyrazine [Example 53]
PDE10 from pig striatum
  IC50: 43 nM

## 3,4-dimethyl-8-(piperidin-1-yl)-methoxy-1-propyl-imidazo[1,5-a]pyrido[3,2-e]pyrazine [Example 55]
[1]
  dose significantly reversing MK-801-induced hyperactivity: 30 mg/kg
  dose significantly reversing MK-801-induced stereotyped sniffing: 30 mg/kg

## CCCc1nc(C)c2c(C#N)nc3ccc(OC)nc3n12 [Example 29, 4-cyano-8-methoxy-3-methyl-1-propyl-imidazo[1,5-a]pyrido[3,2e]pyrazine]
[1]
  dose significantly reversing MK-801-induced stereotyped sniffing: ≥ 5 mg/kg
[2]
  IC50: 18 nM

## CCCN1CC(C)=C(N(S(=O)(=O)c2ccc(C)cc2)S(=O)(=O)c2ccc(C)cc2)C2=C1N1CN(OC)C=C1C=N2 [Example 77, 4-[N,N-bis-(4-methylphenylsulfonyl)-amino]-8-methoxy-3-methyl-1-propyl-imidazo[1,5-a]pyrido[3,2-e]pyrazine]
other
  melting point: 206 to 209 °C

## CCCN1CC(C)=C(OC(C)C)C2=C1N1CN(OC)C=C1C=N2 [Example 9, 4-isopropyloxy-8-methoxy-3-methyl-1-propyl-imidazo[1,5-a]pyrido[3,2-e]pyrazine]
other
  melting point: 78 to 80 °C

Source: patent US7550465B2, “Pyrido[3,2-e]pyrazines, their use as inhibitors of phosphodiesterase 10, and processes for preparing them” (Elbion GmbH, priority 2006, dated 2009)
